Results reported in ChEMBL document CHEMBL4371084, “Design, synthesis and biological evaluation of novel HIV-1 protease inhibitors with pentacyclic triterpenoids as P2-ligands” (Bioorg Med Chem Lett, 2019).

How the values were obtained:
Protease = Protease (Human immunodeficiency virus 1, UniProt Q9YQ12); experiment: Inhibition of HIV1 protease expressed in Escherichia coli using Arg-Glu (EDANS)-Ser-Gln-Asn-Tyr-Pro-Ile-Val-Gln-Lys(DABCYL)-Arg as substrate preincubated for 20 to 30 mins followed by substrate addition and measured for 10 mins by FRET assay
Chain of Protease (Q9YQ12 whole entry): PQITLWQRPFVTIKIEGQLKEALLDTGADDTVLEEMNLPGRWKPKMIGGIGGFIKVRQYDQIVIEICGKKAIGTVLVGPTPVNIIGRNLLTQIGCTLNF

[1] = target: Protease (Human immunodeficiency virus 1) (UniProt Q9YQ12); experiment: Potency index, ratio of ursolic acid IC50 to test compound IC50 for HIV1 protease expressed in Escherichia coli
Chain of Protease (Human immunodeficiency virus 1) (Q9YQ12 as listed by the source): as the sequence (Q9YQ12 whole entry) above

Row | IC50 (Protease) | Ratio IC50 [1] | SMILES
1 | 0.49 µM |  | CC(C)CN(C[C@@H](O)[C@H](Cc1ccccc1)NC(=O)[C@]1(C)CC[C@@H]2C3=CC(=O)[C@@H]4[C@@]5(C)CC[C@H](O)C(C)(C)[C@@H]5CC[C@@]4(C)[C@]3(C)CC[C@@]2(C)C1)S(=O)(=O)c1ccc(N)cc1
2 | 0.58 µM |  | CC(C)CN(C[C@@H](O)[C@H](Cc1ccccc1)NC(=O)[C@]1(C)CC[C@H]2C3=CC(=O)[C@@H]4[C@@]5(C)CC[C@H](O)C(C)(C)[C@@H]5CC[C@@]4(C)[C@]3(C)CC[C@@]2(C)C1)S(=O)(=O)c1ccc(N)cc1
3 | 0.48 µM |  | COc1ccc(S(=O)(=O)N(CC(C)C)C[C@@H](O)[C@H](Cc2ccccc2)NC(=O)[C@]2(C)CC[C@H]3C4=CC(=O)[C@@H]5[C@@]6(C)CC[C@H](O)C(C)(C)[C@@H]6CC[C@@]5(C)[C@]4(C)CC[C@@]3(C)C2)cc1
4 | 0.46 µM |  | COc1ccc(S(=O)(=O)N(CC(C)C)C[C@@H](O)[C@H](Cc2ccccc2)NC(=O)[C@]23CC[C@@H](C)[C@H](C)[C@H]2C2=CC[C@@H]4[C@@]5(C)CC[C@H](O)C(C)(C)[C@@H]5CC[C@@]4(C)[C@]2(C)CC3)cc1
5 | 0.3 µM |  | CC(C)CN(C[C@@H](O)[C@H](Cc1ccccc1)NC(=O)[C@]12CC[C@@H](C)[C@H](C)[C@H]1C1=CC[C@@H]3[C@@]4(C)C[C@@H](O)[C@H](O)[C@@](C)(CO)[C@@H]4CC[C@@]3(C)[C@]1(C)CC2)S(=O)(=O)c1ccc(N)cc1
6 | 0.21 µM |  | C=C(C)[C@@H]1CC[C@]2(C(=O)N[C@@H](Cc3ccccc3)[C@H](O)CN(CC(C)C)S(=O)(=O)c3ccc(OC)cc3)CC[C@]3(C)[C@H](CC[C@@H]4[C@@]5(C)CC[C@H](O)C(C)(C)[C@@H]5CC[C@]43C)[C@@H]12
7 | 1.05 µM |  | C=C(C)[C@@H]1CC[C@]2(C(=O)N[C@@H](Cc3ccccc3)[C@H](O)CN(CC(C)C)S(=O)(=O)c3ccc([N+](=O)[O-])cc3)CC[C@]3(C)[C@H](CC[C@@H]4[C@@]5(C)CC[C@H](O)C(C)(C)[C@@H]5CC[C@]43C)[C@@H]12
8 | 0.17 µM |  | CC(C)CN(C[C@@H](O)[C@H](Cc1ccccc1)NC(=O)[C@]12CCC(C)(C)C[C@H]1C1=CC[C@@H]3[C@@]4(C)CC[C@H](O)C(C)(C)[C@@H]4CC[C@@]3(C)[C@]1(C)CC2)S(=O)(=O)c1ccc(N)cc1
9 | 0.5 µM |  | CC(C)CN(C[C@@H](O)[C@H](Cc1ccccc1)NC(=O)[C@]1(C)CC[C@H]2C3=CC(=O)[C@@H]4[C@@]5(C)CC[C@H](O)C(C)(C)[C@@H]5CC[C@@]4(C)[C@]3(C)CC[C@@]2(C)C1)S(=O)(=O)c1ccc([N+](=O)[O-])cc1
10 | 0.12 µM | 67 | CC(C)CN(C[C@@H](O)[C@H](Cc1ccccc1)NC(=O)[C@]12CC[C@@H](C)[C@H](C)[C@H]1C1=CC[C@@H]3[C@@]4(C)CC[C@H](O)C(C)(C)[C@@H]4CC[C@@]3(C)[C@]1(C)CC2)S(=O)(=O)c1ccc(N)cc1
11 | 0.22 µM |  | CC(C)CN(C[C@@H](O)[C@H](Cc1ccccc1)NC(=O)[C@]12CC[C@@H](C)[C@H](C)[C@H]1C1=CC[C@@H]3[C@@]4(C)CCC(=O)C(C)(C)[C@@H]4CC[C@@]3(C)[C@]1(C)CC2)S(=O)(=O)c1ccc([N+](=O)[O-])cc1
12 | 0.15 µM |  | CC(C)CN(C[C@@H](O)[C@H](Cc1ccccc1)NC(=O)[C@]12CCC(C)(C)C[C@H]1C1=CC[C@@H]3[C@@]4(C)CC[C@H](O)C(C)(C)[C@@H]4CC[C@@]3(C)[C@]1(C)CC2)S(=O)(=O)c1ccc([N+](=O)[O-])cc1
13 | 0.15 µM |  | COc1ccc(S(=O)(=O)N(CC(C)C)C[C@@H](O)[C@H](Cc2ccccc2)NC(=O)[C@]23CC[C@@H](C)[C@H](C)[C@H]2C2=CC[C@@H]4[C@@]5(C)C[C@@H](O)[C@H](O)[C@@](C)(CO)[C@@H]5CC[C@@]4(C)[C@]2(C)CC3)cc1
14 | 0.24 µM |  | COc1ccc(S(=O)(=O)N(CC(C)C)C[C@@H](O)[C@H](Cc2ccccc2)NC(=O)[C@]23CCC(C)(C)C[C@H]2C2=CC[C@@H]4[C@@]5(C)CC[C@H](O)C(C)(C)[C@@H]5CC[C@@]4(C)[C@]2(C)CC3)cc1
15 | 1.85 µM |  | COc1ccc(S(=O)(=O)N(CC(C)C)C[C@@H](O)[C@H](Cc2ccccc2)NC(=O)[C@]2(C)CC[C@@H]3C4=CC(=O)[C@@H]5[C@@]6(C)CC[C@H](O)C(C)(C)[C@@H]6CC[C@@]5(C)[C@]4(C)CC[C@@]3(C)C2)cc1
16 | 1.08 µM |  | CC(C)CN(C[C@@H](O)[C@H](Cc1ccccc1)NC(=O)[C@]1(C)CC[C@@H]2C3=CC(=O)[C@@H]4[C@@]5(C)CC[C@H](O)C(C)(C)[C@@H]5CC[C@@]4(C)[C@]3(C)CC[C@@]2(C)C1)S(=O)(=O)c1ccc([N+](=O)[O-])cc1
17 | 0.37 µM |  | COc1ccc(S(=O)(=O)N(CC(C)C)C[C@@H](O)[C@H](Cc2ccccc2)NC(=O)[C@]23CC[C@@H](C)[C@H](C)[C@H]2C2=CC[C@@H]4[C@@]5(C)CCC(=O)C(C)(C)[C@@H]5CC[C@@]4(C)[C@]2(C)CC3)cc1
18 | 0.4 µM |  | CC(C)CN(C[C@@H](O)[C@H](Cc1ccccc1)NC(=O)[C@]12CC[C@@H](C)[C@H](C)[C@H]1C1=CC[C@@H]3[C@@]4(C)CC[C@H](O)C(C)(C)[C@@H]4CC[C@@]3(C)[C@]1(C)CC2)S(=O)(=O)c1ccc([N+](=O)[O-])cc1
19 | 0.17 µM |  | CC(C)CN(C[C@@H](O)[C@H](Cc1ccccc1)NC(=O)[C@]12CC[C@@H](C)[C@H](C)[C@H]1C1=CC[C@@H]3[C@@]4(C)C[C@@H](O)[C@H](O)[C@@](C)(CO)[C@@H]4CC[C@@]3(C)[C@]1(C)CC2)S(=O)(=O)c1ccc([N+](=O)[O-])cc1
20 | 0.61 µM |  | C=C(C)[C@@H]1CC[C@]2(C(=O)N[C@@H](Cc3ccccc3)[C@H](O)CN(CC(C)C)S(=O)(=O)c3ccc(N)cc3)CC[C@]3(C)[C@H](CC[C@@H]4[C@@]5(C)CC[C@H](O)C(C)(C)[C@@H]5CC[C@]43C)[C@@H]12
21 | 2.37 µM |  | CC(C)CN(C[C@@H](O)[C@H](Cc1ccccc1)NC(=O)[C@]12CC[C@@H](C)[C@H](C)[C@H]1C1=CC[C@@H]3[C@@]4(C)CCC(=O)C(C)(C)[C@@H]4CC[C@@]3(C)[C@]1(C)CC2)S(=O)(=O)c1ccc(N)cc1
